Reference: US20230210831A1, “CHRONIC KIDNEY DISEASE TREATMENT OR PREVENTION METHOD” (Japan Tobacco Inc., priority 2019, published 2023)

Tests used:
Type in all cases: cell-based
Escherichia coli WP2uvrA = test: Ames test (reverse mutation test), WP2uvrA; settings: WP2uvrA
Procedure: (§1) The solvent used herein was dimethyl sulfoxide (DMSO, 100 µL/plate).
(§2) The mixtures were preincubated at 37° C. for 20 minutes while shaking. […] Two plates per treatment were used.

[1] = tested on: Salmonella typhimurium TA1535; test: Ames test (reverse mutation test), TA1535
Procedure: as §1, §2

[2] = tested on: Salmonella typhimurium TA98; test: Ames test (reverse mutation test), TA98
Procedure: as §1, §2

[3] = tested on: Salmonella typhimurium TA1537; test: Ames test (reverse mutation test), TA1537
Procedure: as §1, §2

[4] = tested on: Salmonella typhimurium TA100; test: Ames test (reverse mutation test), TA100
Procedure: as §1, §2

[5] = tested on: Salmonella typhimurium (TA98, TA1537, TA100, and TA1535) and Escherichia coli (WP2uvrA); test: Ames test (reverse mutation test), overall conclusion over all tester strains; settings: all bacterial tester strains, with and/or without S9 mix
Procedure: as §1, §2
Details are explained as follows.

Q: Which “Number of revertant colonies” value (Escherichia coli WP2uvrA; +S9 mix, 6.9 µg/plate) does the source give for `Nc1cc(-c2cc(F)cc(OC(F)(F)F)c2)n(-c2cncc(C(F)(F)F)c2)n1` [Metabolite 5] here?
A: 22

Q: And the “Number of revertant colonies” value (Escherichia coli WP2uvrA; +S9 mix, 21 µg/plate)?
A: 22

Q: What about the “Number of revertant colonies” value (Escherichia coli WP2uvrA; +S9 mix, 62 µg/plate) of the same compound?
A: 21

Q: And the “Number of revertant colonies” value (Escherichia coli WP2uvrA; +S9 mix, 185 µg/plate)?
A: 21

Q: What about the “Number of revertant colonies” value (Escherichia coli WP2uvrA; +S9 mix, 556 µg/plate) of the same compound?
A: 18

Q: And the “Number of revertant colonies” value (Escherichia coli WP2uvrA; +S9 mix, 1667 µg/plate)?
A: 21

Q: And the “Number of revertant colonies” value (Escherichia coli WP2uvrA; +S9 mix, 5000 µg/plate)?
A: 19

Q: And the “Number of revertant colonies” value (Escherichia coli WP2uvrA; -S9 mix, 6.9 µg/plate)?
A: 23

Q: And the “Number of revertant colonies” value (Escherichia coli WP2uvrA; -S9 mix, 21 µg/plate)?
A: 15

Q: What about the “Number of revertant colonies” value (Escherichia coli WP2uvrA; -S9 mix, 62 µg/plate) of the same compound?
A: 23

Q: And the “Number of revertant colonies” value (Escherichia coli WP2uvrA; -S9 mix, 185 µg/plate)?
A: 20

Q: And the “Number of revertant colonies” value (Escherichia coli WP2uvrA; -S9 mix, 556 µg/plate)?
A: 22

Q: And the “Number of revertant colonies” value (Escherichia coli WP2uvrA; -S9 mix, 1667 µg/plate)?
A: 19

Q: What about the “Number of revertant colonies” value (Escherichia coli WP2uvrA; -S9 mix, 5000 µg/plate) of the same compound?
A: 14

Q: What about the “Number of revertant colonies” value ([1]; TA1535, +S9 mix, 62 µg/plate) of the same compound?
A: 10

Q: And the “Number of revertant colonies” value ([1]; TA1535, -S9 mix, 5000 µg/plate)?
A: 4

Q: What about the “Number of revertant colonies” value ([2]; TA98, +S9 mix, 6.9 µg/plate) of the same compound?
A: 36

Q: And the “Number of revertant colonies” value ([2]; TA98, +S9 mix, 21 µg/plate)?
A: 38

Q: What about the “Number of revertant colonies” value ([2]; TA98, +S9 mix, 62 µg/plate) of the same compound?
A: 38

Q: And the “Number of revertant colonies” value ([2]; TA98, +S9 mix, 185 µg/plate)?
A: 33

Q: What about the “Number of revertant colonies” value ([2]; TA98, +S9 mix, 556 µg/plate) of the same compound?
A: 27

Q: And the “Number of revertant colonies” value ([2]; TA98, +S9 mix, 1667 µg/plate)?
A: 25

Q: What about the “Number of revertant colonies” value ([2]; TA98, +S9 mix, 5000 µg/plate) of the same compound?
A: 17

Q: What about the “Number of revertant colonies” value ([2]; TA98, -S9 mix, 6.9 µg/plate) of the same compound?
A: 29

Q: What about the “Number of revertant colonies” value ([2]; TA98, -S9 mix, 21 µg/plate) of the same compound?
A: 28

Q: And the “Number of revertant colonies” value ([2]; TA98, -S9 mix, 62 µg/plate)?
A: 29

Q: What about the “Number of revertant colonies” value ([2]; TA98, -S9 mix, 185 µg/plate) of the same compound?
A: 26

Q: What about the “Number of revertant colonies” value ([2]; TA98, -S9 mix, 556 µg/plate) of the same compound?
A: 24

Q: And the “Number of revertant colonies” value ([2]; TA98, -S9 mix, 1667 µg/plate)?
A: 18

Q: What about the “Number of revertant colonies” value ([2]; TA98, -S9 mix, 5000 µg/plate) of the same compound?
A: 14

Q: What about the “Number of revertant colonies” value ([3]; TA1537, +S9 mix, 6.9 µg/plate) of the same compound?
A: 13

Q: And the “Number of revertant colonies” value ([3]; TA1537, +S9 mix, 21 µg/plate)?
A: 11

Q: What about the “Number of revertant colonies” value ([3]; TA1537, +S9 mix, 62 µg/plate) of the same compound?
A: 12

Q: And the “Number of revertant colonies” value ([3]; TA1537, +S9 mix, 185 µg/plate)?
A: 12

Q: What about the “Number of revertant colonies” value ([3]; TA1537, +S9 mix, 556 µg/plate) of the same compound?
A: 8

Q: And the “Number of revertant colonies” value ([3]; TA1537, +S9 mix, 1667 µg/plate)?
A: 3

Q: What about the “Number of revertant colonies” value ([3]; TA1537, +S9 mix, 5000 µg/plate) of the same compound?
A: 1

Q: And the “Number of revertant colonies” value ([3]; TA1537, -S9 mix, 6.9 µg/plate)?
A: 8

Q: And the “Number of revertant colonies” value ([3]; TA1537, -S9 mix, 21 µg/plate)?
A: 7

Q: And the “Number of revertant colonies” value ([3]; TA1537, -S9 mix, 62 µg/plate)?
A: 8

Q: What about the “Number of revertant colonies” value ([3]; TA1537, -S9 mix, 185 µg/plate) of the same compound?
A: 7

Q: What about the “Number of revertant colonies” value ([3]; TA1537, -S9 mix, 556 µg/plate) of the same compound?
A: 2

Q: What about the “Number of revertant colonies” value ([3]; TA1537, -S9 mix, 1667 µg/plate) of the same compound?
A: 3

Q: What about the “Number of revertant colonies” value ([3]; TA1537, -S9 mix, 5000 µg/plate) of the same compound?
A: 2

Q: What about the “Number of revertant colonies” value ([4]; TA100, +S9 mix, 6.9 µg/plate) of the same compound?
A: 134

Q: What about the “Number of revertant colonies” value ([4]; TA100, +S9 mix, 21 µg/plate) of the same compound?
A: 123

Q: And the “Number of revertant colonies” value ([4]; TA100, +S9 mix, 62 µg/plate)?
A: 108

Q: And the “Number of revertant colonies” value ([4]; TA100, +S9 mix, 185 µg/plate)?
A: 103

Q: What about the “Number of revertant colonies” value ([4]; TA100, +S9 mix, 556 µg/plate) of the same compound?
A: 99

Q: And the “Number of revertant colonies” value ([4]; TA100, +S9 mix, 1667 µg/plate)?
A: 67

Q: What about the “Number of revertant colonies” value ([4]; TA100, +S9 mix, 5000 µg/plate) of the same compound?
A: 43

Q: And the “Number of revertant colonies” value ([4]; TA100, -S9 mix, 6.9 µg/plate)?
A: 88

Q: And the “Number of revertant colonies” value ([4]; TA100, -S9 mix, 21 µg/plate)?
A: 91

Q: And the “Number of revertant colonies” value ([4]; TA100, -S9 mix, 62 µg/plate)?
A: 93

Q: And the “Number of revertant colonies” value ([4]; TA100, -S9 mix, 185 µg/plate)?
A: 92

Q: What about the “Number of revertant colonies” value ([4]; TA100, -S9 mix, 556 µg/plate) of the same compound?
A: 59

Q: And the “Number of revertant colonies” value ([4]; TA100, -S9 mix, 1667 µg/plate)?
A: 29

Q: What about the “Number of revertant colonies” value ([4]; TA100, -S9 mix, 5000 µg/plate) of the same compound?
A: 12

Q: And the “potential to induce reverse mutations” value [5]?
A: did not show potential to induce reverse mutations
